Source: patent US5786332A, “Cytokine restraining agents and methods of use in pathologies and conditions associated with altered cytokine levels” (Trega Biosciences, Inc., priority 1995, dated 1998)

Legend:
Assay type in all cases: in vivo
Sprague-Dawley rats [1] = assay: Cyclosporine-induced nephrotoxicity
Description: B. Cyclosporine-Induced Nephrotoxicity: This experiment as performed to ascertain if EX-2 can mitigate the reduction in glomerular filtration rate (GFR) and renal blood flow, as well as the dysfunction in fluid and electrolyte homeostasis induced by immunosuppressive treatment with cyclosporine A.
In the first study, male Sprague-Dawley rats (n=43) with a weight range of 240-290 g at the initiation of the cyclosporine A (CsA) treatment were divided into 4 weight matched groups. The groups were as follows: (1) Control: no CsA, no EX-2, treatment only with CsA vehicle (PBS) PO and EX-2 vehicle (also PBS) IP; (2) CsA: treatment with CsA (50 mg/kg in PBS administered PO daily at 0830 hr for 9 days) and IP injections of PBS (Ex-2 vehicle); (3) CsA and 50 μg: CsA treatment identical to group 2 with the addition of EX-2 (50 μg/kg IP administered daily at 0800 and 1700 hr in EX-2 vehicle); and (4) CsA and 500 μg: CsA treatment identical to groups 2 and 3, and EX-2 treatment protocol similar to group 3 except that the dose of EX-2 was 500 μg/kg BW. After deep anesthesia was assured, the rats were cannulated in the trachea (PE 240) jugular vein, femoral artery, and bladder (PE 50 for the previous 3 cannulations).After cannulation, infusion of ^3 H-inulin was initiated 50 min prior to the measurement period to assess glomerular filtration rate, renal blood flow and plasma flow. Renal blood flow was determined by the inulin extraction technique. At the end of the study, the kidneys were removed for histological analysis.
In the second study, male Sprague-Dawley rats (n=31) with a weight range of 240-290 g at the time of initiation of the cyclosporine treatment were divided into 4 weight-matched groups. […] Renal hemodynamics were determined and extracellular fluid volumes were also assessed.
In the second study, where extracellular fluid volumes (ECF) were measured, there were no differences in ECF among control and treatment groups (27.6±1.9 in control, 27.5±1.7 in CsA and vehicle, 26.2±0.9 in CsA+200 μg/kg EX-2, and 25.7±1.4% in CsA+500 μg/kg EX-2). […]

Sprague-Dawley rats [2] = assay: Nephrotoxic serum glomerulonephritis, albuminuria; details: EX-2 100 μg/kg per injection 3 times per day; 24 hr albumin excretion
Protocol: C. Glomerulonephritis: Male Sprague-Dawley rats (weight 194-248 g) were immunized by subcutaneous injection of 1 mg normal rabbit IgG (Sigma Chemical Co.) in Freund's complete adjuvant (Sigma Chemical Co.). EX-2 was administered 3 times per day (100 μg/kg per injection) throughout the duration of the experiment. Seven days later, the rats were injected with 1.5 ml of nephrotoxic serum iv via dorsal penile vein. Urine, plasma, and serum were collected before injection of nephrotoxic serum at 4, 6, 24, 48, and 96 hr thereafter. […] Albuminuria was quantified by immunoelectrophoresis.

Wistar rats = assay: LPS-induced temperature increase (fever); details: 6 hr following LPS
Protocol: Male Wistar rats (45-75 days old) were placed in a temperature controlled room held at 26° C., which is thermoneutral for the normal body temperature of rats, and were maintained in the room with free access to food and water for 24 hr prior to testing. On the morning of the study, rats were marked for identification and weighed. The temperature of each rat was determined by placing the animal in a restraining cage designed to minimize stress and inserting a temperature probe (YSI probe #402) 3-5 cm into the animal's rectum. The temperature was recorded 15 sec after the reading stabilized. Measurements were repeated 1 hr later to establish a baseline temperature for each rat.
After the baseline temperatures were established, rats were injected IP with saline, IL-1β or LPS endotoxin.
Rats then were injected IP with either saline (control) or various concentrations of EX-2, EX-3, or EX-4 (treated). The temperature of the rats was measured every hr for 6 hr and the inhibition by EX-2, EX-3, or EX-4 of the rise in temperature due to IL-1β or LPS was determined.
In addition, treatment with 50 or 150 μg/kg EX-2 inhibited LPS-induced fever by 45% or 52%, respectively, when measured 6 hr following LPS injection. Furthermore, treatment with 150 μg/kg EX-3 or EX-4 inhibited LPS-induced fever by 57% and 52%, respectively (Table II).

TNF-α = assay: Reduction of LPS-induced TNF levels in mice (IP dosing, ELISA); details: 30 μg/mouse IP; LPS 5 mg/kg IP; vs untreated control mice
Protocol: Balb/c female mice weighing approximately 20 g were placed into two groups, a control group and a treated group. Five mg/kg of LPS in 0.9% saline was administered by intraperitoneal (IP) injection into the control mice. Mice in the treated group were first injected IP with 30 μg EX-2 or 150 μg EX-3 in saline, then, one mn after EX-2 or EX-3 was administered, the mice received LPS as described for the control group.
Blood samples were collected from the orbital sinus of treated and control mice at various times up to four hr after LPS was administered. The plasma was separated by centrifugation at 3000×g for 5 min, then diluted with four volumes of 1× phosphate buffer saline (pH 7.4) containing 1% bovine serum albumin. A 100 μl sample of serum was assayed by ELISA for TNF-α (Genzyme; Cambridge Mass.).
The mean (+/-SEM) TNF-α level in six mice from each group was determined and the percent reduction in TNF levels was calculated.

For “Ac-Nle-Gln-His-(D)Phe-Arg-(D)Trp-Gly-NH2 [EX-2]”, the “Renal blood flow in CsA-treated rats” value (Sprague-Dawley rats [1]; EX-2 IP twice daily with CsA, both studies) was “improved blood flow to values not different from control”, the “GFR in CsA-treated rats” value (Sprague-Dawley rats [1]; compared to CsA and vehicle controls, both studies) was “significantly increased GFR” and the “Urinary protein excretion in CsA-treated rats” value (Sprague-Dawley rats [1]; compared to CsA-treated rats) was “did not increase urinary protein excretion”. The “% Reduction of induced increase in Albumin (mg/day), Glomerulonephritis” value (Sprague-Dawley rats [2]) was 62%, the “Reduction in LPS-induced Fever” value (Wistar rats; 50 μg/kg IP) was 45% and the “Reduction in LPS-induced Fever” value (Wistar rats; 150 μg/kg IP) was 52%. The “Reduction in TNF levels” value (TNF-α) was 50%.
